PubChem BioAssay AID1259408 (Genetic Toxicology Data Bank (GENE-TOX), 2018)
Calls of active or inactive are those of the source. No rule for the calls is given here.

Tested on: GENE-TOX genotoxicity assays, various organisms and cells
Assay: GENE-TOX mutagenicity studies
Conditions: for call: Assay Type: In vivo carcinogenicity studies, Assay Code: CCG+
[1] = Species/Cell Type: Syrian hamster embryo (SHE) cells, Assay Type: Cell transformation, clonal assay, Assay Code: CTC+, Evaluation Type: Evaluation A (Pre-1980)
[2] = Species/Cell Type: Salmonella typhimurium (one or more of the five standard strains: TA98, TA100, TA1535, TA1537, and TA1538), Assay Type: Histidine reverse gene mutation, Ames assay, Assay Code: SAL+, Evaluation Type: Evaluation A (Pre-1980)
[3] = Species/Cell Type: Nonhuman, Assay Type: Sister-chromatid exchange (SCE) in vitro, Assay Code: SC2-, Evaluation Type: Evaluation B (Post-1980)
[4] = Species/Cell Type: Bacillus subtilis (H17 vs M45), Assay Type: Rec-assay, spot test, DNA effects (bacterial DNA repair), Assay Code: REW-, Evaluation Type: Evaluation A (Pre-1980)
[5] = Species/Cell Type: Escherichia coli WP2 UVRA, Assay Type: Tryptophan reverse gene mutation, Assay Code: WPU+D, Dose Response: With dose response, Evaluation Type: Evaluation A (Pre-1980)
[6] = Species/Cell Type: Salmonella typhimurium, Assay Type: Forward and reverse gene mutation, host-mediated assay, Assay Code: HMA+, Evaluation Type: Evaluation A (Pre-1980)
[7] = Species/Cell Type: Drosophila melanogaster, Assay Type: Sex-linked recessive lethal gene mutation, Assay Code: SRL+, Evaluation Type: Evaluation A (Pre-1980)
[8] = Species/Cell Type: Nonhuman, Evaluation Type: Evaluation A (Pre-1980)
[9] = Species/Cell Type: Nonhuman, Assay Type: Sister-chromatid exchange (SCE) in vitro, Assay Code: SC2+D, Dose Response: With dose response, Evaluation Type: Evaluation B (Post-1980)
[10] = Species/Cell Type: Drosophila melanogaster, Assay Type: Sex-linked recessive lethal gene mutation, Assay Code: SRLT, Evaluation Type: Evaluation A (Pre-1980)
[11] = Species/Cell Type: Escherichia coli polA (W3119 vs P3478), Assay Type: Rec-assay, DNA effects (bacterial DNA repair), Assay Code: RE1T, Evaluation Type: Evaluation A (Pre-1980)
[12] = Species/Cell Type: Bacillus subtilis (H17 vs M45), Assay Type: Rec-assay, spot test, DNA effects (bacterial DNA repair), Assay Code: REW+, Evaluation Type: Evaluation A (Pre-1980)
[13] = Species/Cell Type: Salmonella typhimurium (one or more of the five standard strains: TA98, TA100, TA1535, TA1537, and TA1538), Assay Type: Histidine reverse gene mutation, Ames assay, Assay Code: SAL-, Evaluation Type: Evaluation A (Pre-1980)
[14] = Species/Cell Type: Salmonella typhimurium (one or more of the five standard strains: TA98, TA100, TA1535, TA1537, and TA1538), Assay Type: Histidine reverse gene mutation, Ames assay, Assay Code: SALT, Evaluation Type: Evaluation A (Pre-1980)
[15] = Species/Cell Type: Mammalian polychromatic erythrocytes, Assay Type: Micronucleus test, chromosome aberrations, Assay Code: MNT+, Evaluation Type: Evaluation B (Post-1980)
[16] = Species/Cell Type: Salmonella typhimurium (one or more of the five standard strains: TA98, TA100, TA1535, TA1537, and TA1538), Assay Type: Histidine reverse gene mutation, Ames assay, Assay Code: SAL+*, Activation: With metabolic activation, Evaluation Type: Evaluation A (Pre-1980)

Nc1ccc(Cl)cc1
mutagenic call (Species/Cell Type: Escherichia coli polA (W3119 vs P3478), Assay Type: Rec-assay, DNA effects (bacterial DNA repair), Assay Code: RE1+, Evaluation Type: Evaluation A (Pre-1980)): active; positive
mutagenic call (Species/Cell Type: Saccharomyces cerevisiae, Assay Type: Mitotic recombination or gene conversion, Assay Code: YEH-, Evaluation Type: Evaluation A (Pre-1980)): inactive; negative
mutagenic call [1]: active; positive

CC(=O)Nc1nnc(-c2ccc([N+](=O)[O-])o2)s1
mutagenic call [2]: active; positive

[Cl][Ti]([Cl])[Cl]
mutagenic call [3]: inactive; negative

CC(=O)Nc1nc(-c2cc([N+](=O)[O-])cs2)cs1
mutagenic call [2]: active; positive

Nc1ncc(/C=C/c2ccc([N+](=O)[O-])o2)nn1
mutagenic call [4]: inactive; negative
mutagenic call (Species/Cell Type: Escherichia coli WP2, Assay Type: Tryptophan reverse gene mutation, Assay Code: WP2+, Evaluation Type: Evaluation A (Pre-1980)): active; positive
mutagenic call [5]: active; positive

C1CNCCN1
mutagenic call [6]: active; positive

BrCc1c2ccccc2cc2c1ccc1ccccc12
mutagenic call (Species/Cell Type: Chinese hamster lung (V79) cells, Assay Type: Forward gene mutation at the HPRT or ouabain locus, Assay Code: V79+, Evaluation Type: Evaluation A (Pre-1980)): active; positive
mutagenic call [7]: active; positive
mutagenic call (Species/Cell Type: Escherichia coli WP2, Assay Type: Tryptophan reverse gene mutation, Assay Code: WP2+D, Dose Response: With dose response, Evaluation Type: Evaluation A (Pre-1980)): active; positive
mutagenic call [5]: active; positive
mutagenic call (Species/Cell Type: Human diploid fibroblasts, Assay Type: Unscheduled DNA synthesis (UDS) in vitro, DNA effects, Assay Code: UDH+, Evaluation Type: Evaluation A (Pre-1980)): active; positive
call [8]: active; positive
mutagenic call [9]: active; positive
mutagenic call (Species/Cell Type: Syrian hamster embryo (SHE) cells, Assay Type: Cell transformation, clonal assay, Assay Code: CTC-, Evaluation Type: Evaluation A (Pre-1980)): inactive; negative

CC(=O)OC(c1ccc2c(c1)OCO2)C1CO1 (centres undefined)
mutagenic call [2]: active; positive

C/C=C1/C[C@@H](C)[C@](O)(CO)C(=O)OCC2=CC[N+]3([O-])CC[C@@H](OC1=O)[C@@H]23 (some centres undefined)
mutagenic call [10]: no conclusion

CN(CCC(=O)OC[C@H](N)C(=O)O)N=O
mutagenic call (Species/Cell Type: Escherichia coli polA (W3110 vs P3478), Assay Type: Rec-assay, DNA effects (bacterial DNA repair), Assay Code: RE2+, Evaluation Type: Evaluation A (Pre-1980)): active; positive
mutagenic call [11]: no conclusion

[O]=[V]
mutagenic call [12]: active; positive

CC1OC1C (centres undefined)
mutagenic call (Species/Cell Type: Neurospora crassa, Assay Type: Reverse gene mutation, Assay Code: NER+, Evaluation Type: Evaluation A (Pre-1980)): active; positive

CC1(C)S[C@@H]2[C@H](NC(=O)Cc3ccccc3)C(=O)N2[C@H]1C(=O)O
mutagenic call [10]: no conclusion
mutagenic call [13]: inactive; negative

Clc1ccc2c(Cl)ccnc2c1
mutagenic call [14]: no conclusion

C#C[C@]1(O)CC[C@H]2[C@@H]3CCc4cc(OC)ccc4[C@H]3CC[C@@]21C
call [8]: active; positive

O=S(=O)(Cl)c1cccc2cccnc12
mutagenic call [14]: no conclusion

OCC(F)(F)F
mutagenic call [14]: no conclusion

Cc1ccccc1N=Nc1ccc(N=Nc2c(O)ccc3ccccc23)c(C)c1
mutagenic call [14]: no conclusion
mutagenic call (Species/Cell Type: Syrian hamster embryo (SA7/SHE) cells, Assay Type: Cell transformation, viral enhanced, Assay Code: CT7+, Evaluation Type: Evaluation A (Pre-1980)): active; positive

CC(=O)NNC(=O)c1ccncc1
mutagenic call (Species/Cell Type: Salmonella typhimurium, Assay Type: Forward and reverse gene mutation, host-mediated assay, Assay Code: HMAT, Evaluation Type: Evaluation A (Pre-1980)): no conclusion

COC(=O)NC(=S)Nc1ccccc1NC(=S)NC(=O)OC
mutagenic call (Species/Cell Type: Aspergillus nidulans, Assay Type: Aneuploidy, chromosome aberrations, Assay Code: ASN+, Evaluation Type: Evaluation A (Pre-1980)): active; positive
mutagenic call (Species/Cell Type: Mammalian germ cells, Sex: Male, Assay Type: Chromosome aberrations in vivo, Assay Code: CY9-, Evaluation Type: Evaluation A (Pre-1980)): inactive; negative

CC(N)=S
mutagenic call [7]: active; positive
mutagenic call (Species/Cell Type: Escherichia coli polA (W3110 vs P3478), Assay Type: Rec-assay, DNA effects (bacterial DNA repair), Assay Code: RE2-, Evaluation Type: Evaluation A (Pre-1980)): inactive; negative
mutagenic call [11]: no conclusion
mutagenic call (Species/Cell Type: Fischer rat embryo (RLV/1706) cells, Assay Type: Cell transformation, viral enhanced, Assay Code: CTR+, Evaluation Type: Evaluation A (Pre-1980)): active; positive
mutagenic call [15]: active; positive
mutagenic call (Species/Cell Type: Mouse embryo (AKR/ME) cells, Assay Type: Cell transformation, Assay Code: CTK+, Evaluation Type: Evaluation A (Pre-1980)): active; positive
mutagenic call (Species/Cell Type: Mouse, Sex: Male, Assay Type: Sperm morphology, Assay Code: SPI-, Evaluation Type: Evaluation A (Pre-1980)): inactive; negative
call [8]: active; positive
mutagenic call (Species/Cell Type: Saccharomyces cerevisiae, Assay Type: Mitotic recombination or gene conversion, Assay Code: YEH+/-*, Activation: With metabolic activation, Evaluation Type: Evaluation A (Pre-1980)): inactive; positive without activation, negative with activation
mutagenic call [13]: inactive; negative
mutagenic call [6]: active; positive
mutagenic call [1]: active; positive

CN(C)CC/C=C1\c2ccccc2CSc2ccccc21
mutagenic call (Species/Cell Type: Rodents, Sex: Male, Assay Type: Dominant lethal test, Assay Code: DLT-, Evaluation Type: Evaluation A (Pre-1980)): inactive; negative

[Cl][Pt]([Cl])([Cl])[Cl]
mutagenic call [12]: active; positive
mutagenic call [7]: active; positive

Clc1ccc(C(c2ccccc2Cl)C(Cl)(Cl)Cl)cc1 (centres undefined)
mutagenic call (Species/Cell Type: Nonhuman, Assay Type: Chromosome aberrations in vitro, Assay Code: CY&+, Evaluation Type: Evaluation A (Pre-1980)): active; positive

[Cl][Cr]([Cl])[Cl]
mutagenic call [4]: inactive; negative
mutagenic call (Species/Cell Type: Human lymphocytes, Assay Type: Sister-chromatid exchange (SCE) in vitro, Assay Code: SCL-, Evaluation Type: Evaluation B (Post-1980)): inactive; negative
mutagenic call (Species/Cell Type: Human, Assay Type: Sister-chromatid exchange (SCE) in vitro, Assay Code: SC1-, Evaluation Type: Evaluation B (Post-1980)): inactive; negative
mutagenic call (Species/Cell Type: Mammalian oocytes or early embryo, Assay Type: Chromosome aberrations in vivo, Assay Code: CYO-, Evaluation Type: Evaluation A (Pre-1980)): inactive; negative
mutagenic call (Species/Cell Type: Nonhuman, Assay Type: Sister-chromatid exchange (SCE) in vitro, Assay Code: SC2+, Evaluation Type: Evaluation B (Post-1980)): active; positive
mutagenic call (Species/Cell Type: Nonhuman, Assay Type: Sister-chromatid exchange (SCE) in vitro, Assay Code: SC2T, Evaluation Type: Evaluation B (Post-1980)): no conclusion
mutagenic call [14]: no conclusion

Cc1cc2ccccc2c2cc3ccccc3cc12
mutagenic call [9]: active; positive
mutagenic call [3]: inactive; negative
mutagenic call [16]: active; positive

COc1c(O)c2c(c3cc(C(=O)N4CCc5c4c(O)c(OC)c4[nH]c(C(=O)N6C[C@H]7C[C@@]78C6=CC(=O)c6[nH]cc(C)c68)cc54)[nH]c13)CCN2C(N)=O
mutagenic call [15]: active; positive

Cc1cc2ccccc2c2ccc3c(c12)CCC3=O
mutagenic call [16]: active; positive

CSc1nc2c(c(=O)n(C)c(=O)n2C)n1C
mutagenic call (Species/Cell Type: Allium cepa, Assay Type: Chromosome aberrations, Assay Code: ALC+D, Dose Response: With dose response, Evaluation Type: Evaluation A (Pre-1980)): active; positive

CN(C)c1ccc(/C=C/c2ccccc2)cc1
mutagenic call [10]: no conclusion

Cc1ccc(N=Nc2c(O)c(C(=O)O)cc3ccccc23)c(S(=O)(=O)O)c1
mutagenic call [14]: no conclusion

NC1=NC(=O)NC(=O)C1
mutagenic call (Species/Cell Type: Vicia faba, Assay Type: Chromosome aberrations, Assay Code: VIC+, Evaluation Type: Evaluation A (Pre-1980)): active; positive

NC(=O)N1c2ccccc2C=Cc2cc(O)ccc21
mutagenic call (Species/Cell Type: Human lymphocytes, Assay Type: Sister-chromatid exchange (SCE) in vitro, Assay Code: SCLT, Evaluation Type: Evaluation B (Post-1980)): no conclusion
mutagenic call (Species/Cell Type: Human, Assay Type: Sister-chromatid exchange (SCE) in vitro, Assay Code: SC1T, Evaluation Type: Evaluation B (Post-1980)): no conclusion
